Data on five molecules can be found in patent US20180338899A1, “INHIBITORS FOR METHYLATION-RELATED ENZYMES HAT1 AND KAT8” (priority 2015, published 2018).

Data set [1] concerns various tumors (cancer and sarcoma types). Kind of data set: Drug sensitivity test, anti-tumor effect on various tumors. The format is cell-based. The note with it: within an effective blood concentration or even at the minimum effective blood concentration or less; values only in FIG. 13. The text has this: Moreover, how chlorpropamide exerted an anti-tumor effect on various tumors was investigated. Target tumor types, which are classified into cancer (epithelial malignant tumors), include thyroid cancer, malignant brain tumor, malignant melanoma, lung cancer, gastric cancer, liver cancer, pancreatic cancer, colon cancer, cervical cancer, ovarian cancer, bladder cancer, and neuroblastoma. Target tumor types, which are classified into sarcoma (non-epithelial malignant tumors), include fibrosarcoma and osteosarcoma.
The concentrations of chlorpropamide were represented in a ratio when the maximum effective blood concentration was set to 1 as described above. […] The results mean that chlorpropamide can be used as an effective and safe anti-malignant tumor agent acting on various tumors.

For data set [2] the following is noted: cited from earlier work.
Data set [3] has as its target T1, HAT1 (Homo sapiens, UniProt O14929).
T1 sequence (O14929 1-419): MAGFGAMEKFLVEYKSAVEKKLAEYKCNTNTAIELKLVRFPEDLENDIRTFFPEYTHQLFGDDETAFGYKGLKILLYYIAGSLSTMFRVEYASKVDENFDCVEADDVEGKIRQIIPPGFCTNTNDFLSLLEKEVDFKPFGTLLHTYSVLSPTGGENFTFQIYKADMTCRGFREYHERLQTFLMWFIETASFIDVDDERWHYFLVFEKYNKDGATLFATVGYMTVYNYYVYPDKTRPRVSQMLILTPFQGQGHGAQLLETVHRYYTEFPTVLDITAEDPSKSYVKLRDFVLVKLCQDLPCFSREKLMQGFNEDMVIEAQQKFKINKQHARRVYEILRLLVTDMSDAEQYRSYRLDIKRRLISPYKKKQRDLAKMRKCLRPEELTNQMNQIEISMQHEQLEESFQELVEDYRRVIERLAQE
Put plainly: FDA library screening (analysis service PLEXERA) and binding strength, HAT1. The text has this:
(§1) Medicines containing each as an active ingredient (provided that each medicine has an indication other than that for malignant tumors) have already been commercially available.
(§2) Meanwhile, medicines containing each as an active ingredient (provided that each medicine has an indication other than that for malignant tumors) have already been commercially available.

For data set [4], the system named is HAT1. Put plainly: Inhibitory effect of low-molecular-weight compounds on expression of HAT1 by RT-PCR. The note with it: FIG. 6. It counts as cell-based.
In data set [5] the test system is HLF cells. Put plainly: Cell death and cell growth suppression rate of HLF cells, 3D cell culture spheroid counter Cell3iMager. The format is cell-based. The procedure: In addition, chlorpropamide or MG149 was added to HLF cells on culture plates and the cell death and cell growth suppression rate were inspected using a 3D cell culture spheroid counter Cell 3 i Mager (SCREEN, Inc., Kyoto). […] The rows indicate the days of culture and the columns show the kinds and concentrations of the compounds. The concentrations of chlorpropamide were represented in a ratio when the maximum effective blood concentration was set to 1. As the maximum effective blood concentration of chlorpropamide was used 30 µg/ml (which is a value described in the interview form of a commercially available medicine containing chlorpropamide as an active ingredient).

Data set [6] addresses T2, KAT8 (Homo sapiens, UniProt Q9H7Z6).
T2 sequence (Q9H7Z6 1-458): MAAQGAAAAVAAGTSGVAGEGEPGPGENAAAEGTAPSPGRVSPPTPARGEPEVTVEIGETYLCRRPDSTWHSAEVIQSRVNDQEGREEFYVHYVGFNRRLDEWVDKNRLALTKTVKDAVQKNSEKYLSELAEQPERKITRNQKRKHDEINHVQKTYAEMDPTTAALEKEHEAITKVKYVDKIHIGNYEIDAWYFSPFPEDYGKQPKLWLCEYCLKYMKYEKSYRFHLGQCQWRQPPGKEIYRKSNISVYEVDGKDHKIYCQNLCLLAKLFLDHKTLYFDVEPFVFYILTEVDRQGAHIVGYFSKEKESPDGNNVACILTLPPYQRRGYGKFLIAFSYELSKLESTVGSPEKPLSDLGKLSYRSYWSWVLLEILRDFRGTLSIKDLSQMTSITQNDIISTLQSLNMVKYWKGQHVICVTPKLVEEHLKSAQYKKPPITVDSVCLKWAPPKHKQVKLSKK
Kind of data set: FDA library screening (analysis service PLEXERA) and binding strength, KAT8.
Description: as §1, §2

Data set [7] concerns KAT8. Put plainly: Inhibitory effect of low-molecular-weight compounds on expression of KAT8 by RT-PCR. It counts as cell-based. The settings on record: FIG. 6.
In data set [8] the test system is HLF cells. Kind of data set: Cell growth suppression of HLF cells on culture plates. It counts as cell-based. The note with it: 360 μg/L, day 3 and day 7. The procedure:
First, HLF cells were cultured on culture plates with RPMI1640 for 7 days. […] In the figures, the “D” denotes days.
Furthermore, rebamipide was added to HLF cells on a culture pate, and the effect on the cells was examined.

For data set [9], the target named is T1, HAT1. The note with it: stated as property of the compound, no test described; cited from earlier work.
Data set [10] concerns the target T2, KAT8. The note with it: stated as property of the compound, no test described; cited from earlier work.
Setting [11] is: interview form of commercially available medicine.

Read-outs that look alike come from different tables or passages of the source.

As for `CCCNC(=O)NS(=O)(=O)c1ccc(Cl)cc1` [chlorpropamide], the “cell growth suppression effect on various tumors” value in data set [1] is reported as “elicited a cell growth suppression effect on each tumor”. For the same molecule, the “maximum effective blood concentration (Cmax)” value in data set [2] (setting [11]) was 30 µg/mL. Besides, the “inhibition of function of HAT1” value on HAT1 [3] is “inhibited function of both HAT1 and KAT8”. Further, the “inhibitory effect on expression of HAT1” value in the data set on HAT1 [4] was “inhibitory effect”. In addition, in the data set with HLF cells [5] (within an effective blood concentration or even at the minimum effective blood concentration or less), the “cell growth suppression effect” value is recorded as “elicited a cell growth suppression effect”. The “inhibition of function of KAT8” value on KAT8 [6] was “inhibited function of both HAT1 and KAT8”. In addition, the “inhibitory effect on expression of KAT8” value in the data set on KAT8 [7] is “inhibitory effect”.
With `O=C(NC(Cc1cc(=O)[nH]c2ccccc12)C(=O)O)c1ccc(Cl)cc1` (stereo not shown) [Rebamipide, rebamipide], the “cell growth suppression effect” value in the data set on HLF cells [8] was “no cell growth suppression effect”. In addition, the “maximum effective blood concentration (Cmax)” value in data set [2] (setting [11]) is 0.36 µg/mL. Further, the “inhibition of HAT1” value at HAT1 [9] was “inhibits HAT1”. The “inhibition of KAT8” value at KAT8 [10] was “does not inhibit KAT8”.
`Cc1cc(C(C)(C)CC(C)(C)C)ccc1OCCOCC[N+](C)(C)Cc1ccccc1.[Cl-]` [methylbenzethonium chloride]: the “maximum effective blood concentration (Cmax)” value in data set [2] (setting [11]) is 1.93 µg/mL; in [2] (interview form, given as percent (external preparation / solution concentration)), 0.3%. The “inhibition of function of HAT1” value on HAT1 [3] is “inhibited function of both HAT1 and KAT8”. Further, the “inhibitory effect on expression of HAT1” value with HAT1 [4] was “inhibitory effect”. Moreover, the “inhibition of function of KAT8” value at KAT8 [6] is “inhibited function of both HAT1 and KAT8”. Moreover, in the data set with KAT8 [7], the “inhibitory effect on expression of KAT8” value is on record as “inhibitory effect”.
Consider `CCCCCCCc1ccc(CCc2cccc(O)c2C(=O)O)cc1` [MG149], for which the “inhibition of HAT1” value at HAT1 [9] is “does not inhibit HAT1”. Also, the “inhibition of KAT8” value on KAT8 [10] is reported as “inhibits only KAT8”. Moreover, in the data set on HLF cells [5] (high concentration (30 μM)), the “cell growth suppression effect” value is recorded as “failed to elicit a sufficient cell growth suppression effect”.
With colistin sulfate, the “maximum effective blood concentration (Cmax)” value in [2] (setting [11]) was 4.4 µg/mL. Also, the “inhibition of function of HAT1” value on HAT1 [3] was “inhibited function of both HAT1 and KAT8”. Also, the “inhibitory effect on expression of HAT1” value in the data set on HAT1 [4] was “inhibitory effect”. Besides, the “inhibition of function of KAT8” value on KAT8 [6] is “inhibited function of both HAT1 and KAT8”. In addition, the “inhibitory effect on expression of KAT8” value with KAT8 [7] is reported as “inhibitory effect”.
